{
  "source": "patent US7655233B2",
  "about": "(priority 2005, dated 2010)",
  "tested_on": "Vesicular Stomatitis Virus",
  "data": [
    {"substance": "Polysorbate 80", "values": [
      {"measurement": "virus inactivation by excipient", "result": "no appreciable virus inactivation occurred"}
    ]}
  ]
}
